In patent publication US10479795B2 (Incyte Corporation, priority 2016, dated 2019) one finds IC50 data, which are given here for 20 compounds.

Each structure is given as a SMILES string. Structures can show the parent of a compound that is named as a salt. Where two headings read alike, the source gives them in different places. Bounds are passed on as bounds.

Assay [1] deals with PI3Kγ (p110γ) Recombinant Human Protein (Homo sapiens (Human), UniProt P48736). Description: PI3K-γ Scintillation Proximity Assay. The class given is biochemical. Particulars: read-out: PI3Kγ IC50. A digest of the protocol: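 Recombinant human p110γ assayed at room temperature in 20 mM MOPS pH 6.7, 10 mM MgCl2, 5 mM DTT, 0.03% CHAPS, 2% DMSO, with 20 μM PIP2 and 2 μM ATP plus [γ-33P]ATP. Product captured on WGA SPA beads overnight and counted; IC50 fitted from % of solvent-control activity versus log inhibitor concentration.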
Chain of PI3Kγ (p110γ) Recombinant Human Protein (P48736 whole entry): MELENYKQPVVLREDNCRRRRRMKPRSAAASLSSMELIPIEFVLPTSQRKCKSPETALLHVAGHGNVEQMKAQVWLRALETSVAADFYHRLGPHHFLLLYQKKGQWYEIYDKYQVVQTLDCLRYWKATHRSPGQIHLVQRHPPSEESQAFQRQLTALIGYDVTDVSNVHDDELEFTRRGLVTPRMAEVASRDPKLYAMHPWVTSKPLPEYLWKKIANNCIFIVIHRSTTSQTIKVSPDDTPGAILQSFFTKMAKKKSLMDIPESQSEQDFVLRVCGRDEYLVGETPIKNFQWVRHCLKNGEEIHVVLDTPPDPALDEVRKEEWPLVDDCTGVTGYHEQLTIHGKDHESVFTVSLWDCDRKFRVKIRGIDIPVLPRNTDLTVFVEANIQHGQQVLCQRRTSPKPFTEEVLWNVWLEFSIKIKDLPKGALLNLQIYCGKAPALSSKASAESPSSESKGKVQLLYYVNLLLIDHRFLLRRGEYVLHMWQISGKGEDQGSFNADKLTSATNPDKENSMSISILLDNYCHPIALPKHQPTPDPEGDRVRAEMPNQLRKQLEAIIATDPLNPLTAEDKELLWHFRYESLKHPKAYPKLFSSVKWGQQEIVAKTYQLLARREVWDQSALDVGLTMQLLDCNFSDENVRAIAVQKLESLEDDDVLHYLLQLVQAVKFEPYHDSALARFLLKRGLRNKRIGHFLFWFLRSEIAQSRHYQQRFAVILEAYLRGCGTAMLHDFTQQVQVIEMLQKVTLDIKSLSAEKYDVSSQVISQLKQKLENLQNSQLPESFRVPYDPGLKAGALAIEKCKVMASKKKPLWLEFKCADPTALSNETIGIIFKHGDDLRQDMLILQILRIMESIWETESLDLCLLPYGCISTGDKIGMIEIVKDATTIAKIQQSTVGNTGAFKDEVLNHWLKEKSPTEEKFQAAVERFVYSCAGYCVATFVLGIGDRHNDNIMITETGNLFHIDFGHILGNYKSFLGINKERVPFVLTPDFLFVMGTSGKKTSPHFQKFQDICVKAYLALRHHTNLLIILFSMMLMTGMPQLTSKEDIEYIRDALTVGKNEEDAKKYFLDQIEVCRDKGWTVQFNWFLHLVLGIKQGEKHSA

Assay [2] relates to Phosphorylated Ribosomal Protein S6 (RPS6). Description: THP-1 RPS6 ELISA Assay. The class given is cell-based, Human. To be noted: THP-1 cells, read-out: PI3Kγ_THP1_RPS6_ELISA IC50. A digest of the protocol:
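Serum-starved THP-1 cells were preincubated with a concentration range of compound for 2 h at 37 °C, then stimulated with 10 nM MCP-1 for 15 min. Phospho-RPS6 in lysates was quantified by ELISA at 450 nm. IC50 came from percent inhibition versus log inhibitor concentration.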

Assay [3] addresses PI3Kδ (p110δ/p85α) Recombinant Human Protein (Homo sapiens (Human), UniProt O00329). In words: PI3Kδ Scintillation Proximity Assay. The class given is biochemical. A digest of the protocol:
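Recombinant human p110δ/p85α (3.4 nM) phosphorylates 20 μM di-octanoyl PIP2 using 2 μM ATP spiked with [γ-33P]ATP, 120 min, room temperature, pH 6.7, 2% DMSO. Product measured by scintillation proximity; IC50 from dose-response fit.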
Background: Scintillation proximity formats need no separation of bound from free tracer.

Chain of PI3Kδ (p110δ/p85α) Recombinant Human Protein (O00329 whole entry): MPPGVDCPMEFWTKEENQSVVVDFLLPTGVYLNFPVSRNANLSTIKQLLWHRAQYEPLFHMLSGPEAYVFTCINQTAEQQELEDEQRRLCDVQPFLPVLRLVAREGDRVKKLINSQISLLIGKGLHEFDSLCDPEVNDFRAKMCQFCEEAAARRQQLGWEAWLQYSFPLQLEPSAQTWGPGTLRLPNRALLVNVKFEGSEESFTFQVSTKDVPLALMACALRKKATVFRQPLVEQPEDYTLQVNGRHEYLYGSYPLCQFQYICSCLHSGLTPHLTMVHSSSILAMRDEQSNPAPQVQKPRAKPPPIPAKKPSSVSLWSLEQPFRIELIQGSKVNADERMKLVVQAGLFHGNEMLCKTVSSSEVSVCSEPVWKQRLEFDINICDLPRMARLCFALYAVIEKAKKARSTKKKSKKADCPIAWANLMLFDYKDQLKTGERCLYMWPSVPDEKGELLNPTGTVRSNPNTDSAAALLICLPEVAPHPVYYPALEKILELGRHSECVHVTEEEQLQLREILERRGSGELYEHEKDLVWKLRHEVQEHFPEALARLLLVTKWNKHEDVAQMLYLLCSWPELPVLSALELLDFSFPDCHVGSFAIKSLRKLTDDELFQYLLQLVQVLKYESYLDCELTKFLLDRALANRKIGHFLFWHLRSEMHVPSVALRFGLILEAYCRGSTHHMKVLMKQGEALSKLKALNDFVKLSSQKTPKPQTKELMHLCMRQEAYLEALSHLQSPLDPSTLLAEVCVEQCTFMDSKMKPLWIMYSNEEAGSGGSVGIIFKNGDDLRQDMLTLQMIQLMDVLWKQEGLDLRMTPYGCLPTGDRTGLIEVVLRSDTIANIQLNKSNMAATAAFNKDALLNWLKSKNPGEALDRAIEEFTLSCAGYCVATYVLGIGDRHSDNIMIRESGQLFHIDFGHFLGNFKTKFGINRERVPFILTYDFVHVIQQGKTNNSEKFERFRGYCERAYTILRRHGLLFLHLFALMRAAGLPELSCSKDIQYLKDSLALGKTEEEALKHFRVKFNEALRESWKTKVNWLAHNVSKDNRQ
Chain of PI3Kδ (p110δ/p85α) Recombinant Human Protein (P27986 whole entry partner): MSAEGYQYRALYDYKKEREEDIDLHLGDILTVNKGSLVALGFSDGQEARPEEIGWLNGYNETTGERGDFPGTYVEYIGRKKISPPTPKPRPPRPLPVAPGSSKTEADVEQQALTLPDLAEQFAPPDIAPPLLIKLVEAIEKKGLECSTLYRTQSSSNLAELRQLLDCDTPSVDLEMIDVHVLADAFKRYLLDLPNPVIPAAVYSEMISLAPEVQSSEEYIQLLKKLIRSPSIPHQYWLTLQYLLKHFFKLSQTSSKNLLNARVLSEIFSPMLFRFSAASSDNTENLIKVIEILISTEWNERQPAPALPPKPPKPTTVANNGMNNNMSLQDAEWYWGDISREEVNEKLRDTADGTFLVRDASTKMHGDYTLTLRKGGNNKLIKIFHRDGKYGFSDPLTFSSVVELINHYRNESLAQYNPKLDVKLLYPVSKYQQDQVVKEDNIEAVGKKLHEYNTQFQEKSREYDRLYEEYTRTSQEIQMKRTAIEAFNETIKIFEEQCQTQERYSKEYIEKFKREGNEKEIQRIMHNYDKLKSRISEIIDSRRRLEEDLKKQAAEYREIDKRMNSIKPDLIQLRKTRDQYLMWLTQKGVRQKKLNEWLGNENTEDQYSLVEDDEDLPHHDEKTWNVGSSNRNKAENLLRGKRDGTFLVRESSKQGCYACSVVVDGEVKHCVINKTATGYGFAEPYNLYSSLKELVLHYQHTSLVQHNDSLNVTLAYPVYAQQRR

As a reminder, the IC50 is the concentration that inhibits the measured activity by half. Regarding `Cc1ncc(S(=O)(=O)NC23CCC(C#N)(C2)C3)cc1-c1cnc2c(N)nc(C(F)(F)F)cn12` [Example 257, 5-(8-amino-6-(trifluoromethyl)imidazo[1,2-a]pyrazin-3-yl)-N-(4-cyanobicyclo[2.1.1]hexan-1-yl)-6-methylpyridine-3-sulfonamide], the IC50 is below 100 nM in assay [1], above 1000 nM in assay [2] (Homo sapiens) and 500 to 2000 nM in assay [3].
Consider `N#CC12CCC(NS(=O)(=O)c3cc(-c4cnc5c(N)nc(C(F)(F)F)cn45)ccc3F)(C1)C2` [Example 396, 5-(8-Amino-6-(trifluoromethyl)imidazo[1,2-a]pyrazin-3-yl)-N-(4-cyanobicyclo[2.1.1]hexan-1-yl)-2-fluorobenzenesulfonamide trifluoroacetate salt], for which the IC50 in assay [1] was below 100 nM; in assay [2] (Homo sapiens), 500 to 1000 nM; in assay [3], 100 to 500 nM.
Take `Cc1ccc(S(=O)(=O)NCC2(C#N)CCC2)cc1-c1cnc2c(N)ncnn12` [Example 102, 3-(4-Aminoimidazo[1,2-f][1,2,4]triazin-7-yl)-N-((1-cyanocyclobutyl)methyl)-4-methylbenzenesulfonamide trifluoroacetate salt]: the results for the IC50 in assay [1], in assay [2] and in assay [3] were below 100 nM, 100 to 500 nM and 100 to 500 nM, respectively.
On to `Cc1ccc(S(=O)(=O)N2CCNC[C@@H]2CO)cc1-c1cnc2c(N)ncnn12` [Example 166, (R)-(1-((3-(4-aminoimidazo[2,1-f][1,2,4]triazin-7-yl)-4-methylphenyl)sulfonyl)piperazin-2-yl)methanol], for which the IC50 was below 100 nM in assay [1], 100 to 500 nM in assay [2] (Homo sapiens) and 100 to 500 nM in assay [3].
As for `CNC(=O)c1cn2c(-c3cc(S(=O)(=O)NCC4CC(F)(F)C4)ccc3C)cnc2c(N)n1` [Example 445, 8-Amino-3-(5-(N-((3,3-difluorocyclobutyl)methyl)sulfamoyl)-2-methylphenyl)-N-methylimidazo[1,2-a]pyrazine-6-carboxamide trifluoroacetate salt], the IC50 in assay [1] is below 100 nM; in assay [2] (Homo sapiens), 100 to 500 nM; in assay [3] it was 100 to 500 nM.
As to `Cc1ccc(S(=O)(=O)N2C[C@@H](C)C[C@@H](N)C2)cc1-c1cnc2c(N)nc(C(F)(F)F)cn12` [Example 306, 3-(5-(((3R,5S)-3-amino-5-methylpiperidin-1-yl)sulfonyl)-2-methylphenyl)-6-(trifluoromethyl)imidazo[1,2-a]pyrazin-8-amine], the IC50 in assay [1], in assay [2] (Homo sapiens) and in assay [3] was below 100 nM throughout.
As to `Cc1ccc(S(=O)(=O)NC23CC(c4nnn[nH]4)(C2)C3)cc1-c1cnc2c(N)ncnn12` [Example 99, N-(3-(1H-tetrazol-5-yl)bicyclo[1.1.1]pentan-1-yl)-3-(4-aminoimidazo[1,2-f][1,2,4]triazin-7-yl)-4-methylbenzenesulfonamide trifluoroacetate salt], the half-maximal inhibitory concentration (IC50) in assay [1] is below 100 nM; in assay [2] it was above 1000 nM; in assay [3] it was 500 to 2000 nM.
Turning to `Cc1ccc(S(=O)(=O)N[C@H]2CC[C@H](O)CC2)cc1-c1cnc2c(N)nc(-c3ccncc3)cn12` [Example 25, 3-(8-Amio-6-pyridin-4-ylimidazo[1,2-a]pyrazin-3-yl)-N-(trans-4-hydroxycyclohexyl)-4-methylbenzenesulfonamide], the IC50 in assay [1] is below 100 nM; in assay [2] (Homo sapiens) it was 100 to 500 nM; in assay [3], 100 to 500 nM.
For the compound `Cc1ccc(S(C)(=O)=O)cc1-c1cnc2c(N)nc(-c3ccncc3F)cn12` [Example 476, 6-(3-Fluoropyridin-4-yl)-3-(2-methyl-5-(methylsulfonyl)phenyl)imidazo[1,2-a]pyrazin-8-amine trifluoroacetate], the IC50 in assay [1] was below 100 nM; in assay [2] (Homo sapiens), 100 to 500 nM; in assay [3] it was 100 to 500 nM.
As for `Cc1cc(F)c(S(=O)(=O)N[C@H]2CC[C@H](CC#N)OC2)cc1-c1cnc2c(N)nc(C(F)(F)F)cn12` [Example 405, 5-(8-amino-6-(trifluoromethyl)imidazo[1,2-a]pyrazin-3-yl)-N-((3S,6R)-6-(cyanomethyl)tetrahydro-2H-pyran-3-yl)-2-fluoro-4-methylbenzenesulfonamide trifluoroacetate salt], the IC50 in assay [1] was below 100 nM; in assay [2] (Homo sapiens) it was below 100 nM; in assay [3], 100 to 500 nM.
`Cc1ccc(S(=O)(=O)N[C@H]2CC[C@H](CC#N)OC2)cc1-c1cnc2c(N)nc(C(=O)NC3CCC3)cn12` [Example 450, 8-amino-3-(5-(N-((3S,6R)-6-(cyanomethyl)tetrahydro-2H-pyran-3-yl)sulfamoyl)-2-methylphenyl)-N-cyclobutylimidazo[1,2-a]pyrazine-6-carboxamide trifluoroacetate salt]: the IC50 was below 100 nM in assay [1], 500 to 1000 nM in assay [2] (Homo sapiens) and 100 to 500 nM in assay [3].
In the case of `Cc1ccc(S(=O)(=O)NC2CCC(F)(F)CC2)cc1-c1cnc2c(N)nccn12` [Example 84, 3-(8-amionimidazo[1,2-a]pyrazin-3-yl)-N-(4,4-difluorocyclohexyl)-4-methylbenzenesulfonamide], the half-inhibitory concentration (IC50) in assay [1] is below 100 nM; in assay [2], above 1000 nM; in assay [3] it was 500 to 2000 nM.
Consider `Cc1ccc(S(=O)(=O)N2CC[C@H](N)C2)cc1-c1cnc2c(N)nc(C(F)(F)F)cn12` [Example 305, (S)-3-(5-((3-aminopyrrolidin-1-yl)sulfonyl)-2-methylphenyl)-6-(trifluoromethyl)imidazo[1,2-a]pyrazin-8-amine bis(trifluoroacetate)], for which the IC50 was below 100 nM in assay [1], above 1000 nM in assay [2] (Homo sapiens) and 100 to 500 nM in assay [3].
Taken in the same sequence, the figures for `Cc1ccc(S(=O)(=O)NC23CC(CO)(C2)C3)cc1-c1cnc2c(N)nc(C(F)(F)F)cn12` [Example 274, 3-(8-Amino-6-(trifluoromethyl)imidazo[1,2-a]pyrazin-3-yl)-N-(3-(hydroxymethyl)bicyclo[1.1.1]pentan-1-yl)-4-methylbenzenesulfonamide trifluoroacetate salt] were below 100 nM, below 100 nM and 100 to 500 nM.
As for `Cc1ccc(S(=O)(=O)NC23CC(N4CCOCC4)(C2)C3)cc1-c1cnc2c(N)ncnn12` [Example 116, 3-(4-Aminoimidazo[1,2-f][1,2,4]triazin-7-yl)-4-methyl-N-(3-morpholinobicyclo[1.1.1]pentan-1-yl)benzenesulfonamide trifluoroacetate salt], the results for the IC50 in assay [1], in assay [2] and in assay [3] were below 100 nM, 100 to 500 nM and 500 to 2000 nM, respectively.
On to `Cc1ccc(S(=O)(=O)N[C@H]2CC[C@H](O)CC2)cc1-c1cnc2c(N)nc(-c3ccc(C(C)O)cc3F)cn12` (stereo partly drawn) [Example 82, 3-(8-Amino-6-(2-fluoro-4-(1-hydroxyethyl)phenyl)imidazo[1,2-a]pyrazin-3-yl)-N-(trans-4-hydroxycyclohexyl)-4-methylbenzenesulfonamide], for which the IC50 in assay [1], in assay [2] (Homo sapiens) and in assay [3] was below 100 nM in each case.
For `Cc1nc(N)c2ncc(-c3cc(S(=O)(=O)N[C@H]4CC[C@](C)(O)CC4)c(F)cc3C)n2n1` [Example 402, 5-(4-amino-2-methylimidazo[1,2-f][1,2,4]triazin-7-yl)-2-fluoro-N-((1r,4r)-4-hydroxy-4-methylcyclohexyl)-4-methylbenzenesulfonamide trifluoroacetate salt], the values for the IC50 in assay [1], in assay [2] and in assay [3] were below 100 nM, 100 to 500 nM and 100 to 500 nM, respectively.
Take `Cc1ccc(S(=O)(=O)NC23CC(C(F)F)(C2)C3)cc1-c1cnc2c(N)nc(C(F)(F)F)nn12` [Example 339, 3-(4-Amino-2-(trifluoromethyl)imidazo[1,2-f][1,2,4]triazin-7-yl)-N-(3-(difluoromethyl)bicyclo[1.1.1]pentan-1-yl)-4-methylbenzenesulfonamide trifluoroacetate salt]: the results for the IC50 in assay [1], in assay [2] and in assay [3] were below 100 nM, 100 to 500 nM and 100 to 500 nM, respectively.
For the compound `Cc1c(F)cc(S(=O)(=O)NC23CCC(C#N)(C2)C3)cc1-c1cnc2c(N)nc(C(F)(F)F)cn12` [Example 397, 3-(8-Amino-6-(trifluoromethyl)imidazo[1,2-a]pyrazin-3-yl)-N-(4-cyanobicyclo[2.1.1]hexan-1-yl)-5-fluoro-4-methylbenzenesulfonamide trifluoroacetate salt], the IC50 in assay [1] is below 100 nM; in assay [2] (Homo sapiens) it was below 100 nM; in assay [3], 100 to 500 nM.
Take `Cc1ccc(S(=O)(=O)NC23CC(Cn4cccn4)(C2)C3)cc1-c1cnc2c(N)nc(C(F)(F)F)nn12` [Example 332, N-(3-((1H-pyrazol-1-yl)methyl)bicyclo[1.1.1]pentan-1-yl)-3-(4-amino-2-(trifluoromethyl)imidazo[1,2-f][1,2,4]triazin-7-yl)-4-methylbenzenesulfonamide trifluoroacetate salt]: the IC50 in assay [1] is below 100 nM; in assay [2] it was below 100 nM; in assay [3], 100 to 500 nM.
